Results as given in the supplement of paper PMC4862054.

Columns and labels:
Conditions in all cases: incubation time: 72 h
CAL-51 = assay: drug sensitivity score (DSS), CellTox Green (DSS (AUC-based score)); higher = stronger drug effect (viability inhibition or cytotoxicity); extreme values may be limits of the assay
Method in brief: (§1)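 Compound was dispensed into 384-well plates at 5 concentrations in 10-fold steps spanning a 10,000-fold range chosen for each compound, and 20 µl of breast cancer cell suspension was added before 72 h of incubation. CellTox Green fluorescence was read at 485/520 nm, followed by CellTiter-Glo luminescence after 10 min at room temperature. Values on each plate were normalised to 0.1 % DMSO and a positive kill control. The drug sensitivity score came from the area under the fitted dose-response curve.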

BT-474 [1] = assay: as above
Method in brief: as §1

CAL-85-1 = assay: as above
Method in brief: as §1

MDA-MB-436 [2] = assay: as above
Method in brief: as §1

CAL-148 [3] = assay: as above
Method in brief: as §1

DU-4475 [4] = assay: as above
Method in brief: as §1

Hs578T [5] = assay: as above
Method in brief: as §1

CAL-120 [6] = assay: as above
Method in brief: as §1

HCC1937 [7] = assay: as above
Method in brief: as §1

HCC1143 = assay: as above
Method in brief: as §1

MDA-MB-468 [8] = assay: as above
Method in brief: as §1

MFM-223 [9] = assay: as above
Method in brief: as §1

HDQ-P1 = assay: as above
Method in brief: as §1

BT-549 = assay: as above
Method in brief: as §1

MCF-10A = assay: as above
Method in brief: as §1

MDA-MB-453 [10] = assay: as above
Method in brief: as §1

HCC1599 = assay: as above
Method in brief: as §1

BT-474 [11] = assay: normalised viability (% of control), CellTiter-Blue; higher = more viable cells (about 100 = DMSO control)
Procedure: (§2)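 DSRT, CellTiter-Blue viability, 72 h incubation. Signal is normalised to DMSO and benzethonium chloride controls. Value is the normalised response at dose 3.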

MDA-MB-436 [12] = assay: as above
Procedure: as §2

CAL-148 [13] = assay: as above
Procedure: as §2

DU-4475 [14] = assay: as above
Procedure: as §2

Hs578T [15] = assay: as above
Procedure: as §2

CAL-120 [16] = assay: as above
Procedure: as §2

HCC1937 [17] = assay: as above
Procedure: as §2

MDA-MB-468 [18] = assay: as above
Procedure: as §2

MFM-223 [19] = assay: as above
Procedure: as §2

SK-BR-3 = assay: as above
Procedure: as §2

MDA-MB-453 [20] = assay: as above
Procedure: as §2

Row | Structure (SMILES) | drug sensitivity score (CAL-51) | drug sensitivity score (BT-474 [1]) | drug sensitivity score (CAL-85-1) | drug sensitivity score (MDA-MB-436 [2]) | drug sensitivity score (CAL-148 [3]) | drug sensitivity score (DU-4475 [4]) | drug sensitivity score (Hs578T [5]) | drug sensitivity score (CAL-120 [6]) | drug sensitivity score (HCC1937 [7]) | drug sensitivity score (HCC1143) | drug sensitivity score (MDA-MB-468 [8]) | drug sensitivity score (MFM-223 [9]) | drug sensitivity score (HDQ-P1) | drug sensitivity score (BT-549) | drug sensitivity score (MCF-10A) | drug sensitivity score (MDA-MB-453 [10]) | drug sensitivity score (HCC1599) | normalised viability (BT-474 [11]; 100 nM) [%] | normalised viability (MDA-MB-436 [12]; 100 nM) [%] | normalised viability (CAL-148 [13]; 10 nM) [%] | normalised viability (DU-4475 [14]; 10 nM) [%] | normalised viability (Hs578T [15]; 100 nM) [%] | normalised viability (CAL-120 [16]; 100 nM) [%] | normalised viability (HCC1937 [17]; 100 nM) [%] | normalised viability (MDA-MB-468 [18]; 100 nM) [%] | normalised viability (MFM-223 [19]; 100 nM) [%] | normalised viability (SK-BR-3; 100 nM) [%] | normalised viability (MDA-MB-453 [20]; 10 nM) [%] | normalised viability (BT-474 [11]; 10 nM) [%] | normalised viability (MDA-MB-436 [12]; 10 nM) [%] | normalised viability (CAL-148 [13]; 1 nM) [%] | normalised viability (DU-4475 [14]; 1 nM) [%] | normalised viability (Hs578T [15]; 10 nM) [%] | normalised viability (CAL-120 [16]; 10 nM) [%] | normalised viability (HCC1937 [17]; 10 nM) [%] | normalised viability (MDA-MB-468 [18]; 10 nM) [%] | normalised viability (MFM-223 [19]; 10 nM) [%] | normalised viability (SK-BR-3; 10 nM) [%] | normalised viability (MDA-MB-453 [20]; 1 nM) [%]
1 | O=C(Nc1ccncc1)C(=O)c1cn(Cc2ccc(Cl)cc2)c2ccccc12 [Indibulin] | 12.5 | 1.31 | 11.7 | 0 | 0 | 0 | 1.65 | 0.995 | 0 | 0 | 3.09 | 4.4 | 0 | 0 | 0 | 0 | 0 | 41.7 | 73.8 | 105 | 108 | 67.7 | 36.5 | 30.4 | 61.1 | 108 | 18.9 | 84.8 | – | – | – | – | – | – | – | – | – | – | –
2 | NC(=O)c1ccc(I)c([N+](=O)[O-])c1 [Iniparib] | 0.811 | 0 | 0 | 0 | 0 | 0 | – | 0.0859 | 0 | 1.54 | 0 | 0 | 1.99 | 0 | 1.4 | 0 | 0 | 94.6 | 88.5 | 96.3 | 101 | 91.8 | 105 | 109 | 96.7 | 92.4 | 72.4 | 86.2 | – | – | – | – | – | – | – | – | – | – | –
3 | Oc1ccc2c(c1)CC[C@H](c1ccccc1)[C@@H]2c1ccc(OCCN2CCCC2)cc1 [Lasofoxifene] | 0 | 0 | 3.43 | 0 | 0 | 0 | 3.26 | 0 | 0 | 0 | 0 | 0 | 0 | 0 | 0 | 0 | 0 | – | – | – | – | – | – | – | – | – | – | – | 122 | 85.3 | 101 | 98.7 | 84.3 | 86.9 | 87.2 | 87.2 | 82.8 | 83.2 | 108
4 | O=C(Nc1cccnc1)N1CCC(Cc2cccc(Oc3ccc(C(F)(F)F)cn3)c2)CC1 [PF-3845] | 0 | 0 | 0 | 0 | 0 | 0 | 0 | 0 | 0 | 0 | 0 | 0 | – | 0 | 0 | 0 | 0 | 116 | 113 | 86.9 | 104 | 122 | 96.5 | 107 | 102 | 90.1 | 104 | 105 | – | – | – | – | – | – | – | – | – | – | –
5 | Cc1[nH]c2ccccc2c1CCNCc1ccc(/C=C/C(=O)NO)cc1 [Panobinostat] | 18.2 | 14.6 | 17.3 | 0 | 20.9 | 6.99 | 18.5 | 13.8 | 14.2 | 6.53 | 10 | 6.53 | 3.86 | 0 | 1.6 | 4.41 | 4.47 | – | – | – | – | – | – | – | – | – | – | – | 97.4 | 96.4 | 102 | 115 | 86.8 | 59.3 | 69.7 | 76.8 | 101 | 52.3 | 110
6 | CNC(=O)c1cc(Oc2ccc(NC(=O)Nc3ccc(Cl)c(C(F)(F)F)c3)c(F)c2)ccn1 [Regorafenib] | 0 | 0 | 0 | 0 | 0 | 0 | 0 | 0 | 3.47 | 0 | 0 | 0 | 0 | 0 | 0 | 0 | 0 | 98.3 | 121 | 93.6 | 104 | 98.4 | 87.7 | 90.4 | 107 | 92.6 | 89.3 | 110 | – | – | – | – | – | – | – | – | – | – | –
